Source: US11261180B2, “Cyclohexyl acid isoxazole azoles as LPA antagonists” (Bristol-Myers Squibb Company, priority 2017, dated 2022)

Experiments:
LPA1 [1] = molecular target: T1, LPA1 (Homo sapiens, UniProt Q92633); assay: LPA1 functional antagonist assay (calcium flux in CHO cells overexpressing human LPA1); type: cell-based; set-up: expressed in transfected cells; host or cells: Chinese hamster ovary (CHO) cells; details: CHO cells overexpressing human LPA1, calcium flux induced by 10 nM LPA; read-out: hLPA1 IC50
T1 sequence (Q92633 whole entry): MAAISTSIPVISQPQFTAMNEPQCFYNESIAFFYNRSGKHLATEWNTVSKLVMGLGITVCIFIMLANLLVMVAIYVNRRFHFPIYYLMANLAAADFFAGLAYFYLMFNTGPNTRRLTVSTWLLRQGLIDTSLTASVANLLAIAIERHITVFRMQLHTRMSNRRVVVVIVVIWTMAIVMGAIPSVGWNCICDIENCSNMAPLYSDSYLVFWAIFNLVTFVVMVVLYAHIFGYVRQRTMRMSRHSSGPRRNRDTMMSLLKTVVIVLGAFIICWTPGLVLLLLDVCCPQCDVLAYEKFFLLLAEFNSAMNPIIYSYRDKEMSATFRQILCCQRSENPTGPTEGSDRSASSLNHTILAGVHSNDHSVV
Experimental: The effectiveness of compounds of the present invention as LPA1 inhibitors can be determined in an LPA1 functional antagonist assay as follows:
Chinese hamster ovary cells overexpressing human LPA1 were plated overnight (15,000 cells/well) in poly-D-lysine coated 384-well microplates (Greiner bio-one, Cat #781946) in DMEM/F12 medium (Gibco, Cat #11039). Following overnight culture, cells were loaded with calcium indicator dye (AAT Bioquest Inc, Cat #34601) for 30 minutes at 37° C. The cells were then equilibrated to room temperature for 30 minutes before the assay. Test compounds solubilized in DMSO were transferred to 384 well non-binding surface plates (Corning, Cat #3575) using the Labcyte Echo acoustic dispense and diluted with assay buffer [[…] with calcium/magnesium (Gibco Cat #14025-092), 20 mM HEPES (Gibco Cat #15630-080) and 0.1% fatty acid free BSA (Sigma Cat #A9205)] to a final concentration of 0.5% DMSO. Diluted compounds were added to the cells by FDSS6000 (Hamamatsu) at final concentrations ranging from 0.08 nM to 5 μM. and were then incubated for 20 min at room temperature at which time LPA (Avanti Polar Lipids Cat #857130C) was added at final concentrations of 10 nM to stimulate the cells. The compound IC50 value was defined as the concentration of test compound which inhibited 50% of the calcium flux induced by LPA alone. IC50 values were determined by fitting data to a 4-parameter logistic equation (GraphPad Prism, San Diego Calif.).

LPA1 [2] = molecular target: T1, LPA1; set-up: host or cells: IPF patients (in vivo); details: 26-week clinical trial, IPF patients; cited from earlier work
nerve-injured mice = details: pretreatment; cited from earlier work
[3] = test system: human foetal lung fibroblasts; details: cited from earlier work
UUO mice = details: compared with LPA1 (-/-) mice; cited from earlier work
[4] = test system: pancreatic cancer cell lines; details: cited from earlier work
CTGF = details: MCT cells, co-treatment with LPA; cited from earlier work
[5] = test system: highly peritoneal metastatic pancreatic cancer cell line; details: cited from earlier work

CCCc1nnc(NCc2c(C)noc2-c2ccc(O[C@H]3CCC[C@H](C(=O)O)C3)cn2)s1 [Example 1, (1S,3S)-3-((6-(3-methyl-4-(((5-propyl-1,3,4-thiadiazol-2-yl)amino)methyl)isoxazol-5-yl)pyridin-3-yl)oxy)cyclohexane-1-carboxylic Acid]
IC50 (LPA1 [1]): 2470 nM

Cc1noc(-c2ccc(O[C@H]3CCC[C@H](C(=O)O)C3)cn2)c1CNc1nc(-c2ccccc2)ns1 [Example 4, (1S,3S)-3-((6-(3-methyl-4-(((3-phenyl-1,2,4-thiadiazol-5-yl)amino)methyl)isoxazol-5-yl)pyridin-3-yl)oxy) cyclohexane-1-carboxylic acid]
IC50 (LPA1 [1]): 153 nM

Cc1noc(-c2ccc(-c3ccc(C4(C(=O)O)CC4)cc3)cc2)c1NC(=O)O[C@H](C)c1ccccc1 [BMS-986020]
rate of FVC (forced vital capacity) decline (LPA1 [2]): significantly reduce the rate of FVC (forced vital capacity) decline

C[C@@H](N)[C@H]1CC[C@H](C(=O)Nc2ccncc2)CC1 [Example Y-27632]
allodynia and hyperalgesia (nerve-injured mice): completely abolished

Cc1noc(-c2ccc(O[C@H]3CCC[C@H](C(=O)O)C3)cn2)c1CNc1ncc(C(F)(F)F)s1 [Example 6, (1S,3S)-3-((6-(3-methyl-4-(((5-(trifluoromethyl)thiazol-2-yl)amino)methyl)isoxazol-5-yl)pyridin-3-yl)oxy)cyclohexane-1-carboxylic acid]
IC50 (LPA1 [1]): 486 nM

Cc1noc(-c2ccc(O[C@H]3CCC[C@H](C(=O)O)C3)cn2)c1CNc1ncc(-c2ccccc2)s1 [Example 3, (1S,3S)-3-((6-(3-methyl-4-(((5-phenyl-thiazol-2-yl)amino)methyl)isoxazol-5-yl)pyridin-3-yl)oxy) cyclohexane-1-carboxylic acid]
IC50 (LPA1 [1]): 712 nM

Cc1noc(-c2ccc(CSCCC(=O)O)cc2)c1NC(=O)OC(C)c1ccccc1Cl (centres unmarked) [Ki16425]
chemotaxis of human foetal lung fibroblasts induced by BAL from IPF patients [3]: blocked
increased fibroblast chemotactic activity in bronchoalveolar lavage samples of IPF subjects [3]: inhibited
renal fibrosis profile in UUO mice (UUO mice): closely resembled the profile of LPA1 (−/−) mice
in vitro migration in response to LPA and peritoneal fluid (ascites) from pancreatic cancer patients [4]: effectively blocked
LPA induction of CTGF expression (CTGF): almost completely suppressed
LPA-induced and ascites-induced invasion activity [5]: blocked

Cc1nc(-c2onc(C)c2CNc2ncn(-c3ccccc3)n2)ccc1O[C@H]1CCC[C@H](C(=O)O)C1 [Example 7]
IC50 (LPA1 [1]): 29 nM

Cc1nc(NCc2c(C)noc2-c2ccc(O[C@H]3CCC[C@H](C(=O)O)C3)cn2)sc1-c1ccccc1 [Example 5]
IC50 (LPA1 [1]): 41 nM
